Reference: US20180228145A1, “ABSORBENT BINDER COMPOSITION” (Kimberly-Clark Worldwide, Inc., priority 2015, published 2018)

Test system: E. coli
Experiment: Kirby-Bauer Zone of Inhibition test (AATCC 147-1998), impregnated test wafers on agar plate
Type: cell-based
Settings: 50 ml FAB, 1.1 g calcium chloride plus antimicrobial agent; impregnated wafer
Description: A variety of absorbent binder compositions were formulated to contain the FAB superabsorbent polymer material, calcium chloride, and an antimicrobial agent. The absorbent binder composition contained 50 ml FAB and 1.1 g (10 mmole) calcium chloride, and the antimicrobial agent as noted in Table 2 below. The absorbent binder compositions were then analyzed according to the Kirby-Bauer Antibiotic test method which is a Zone of Inhibition test method (This test method is also known by the American Association of Textile Chemists and Colorists (AATCC) as test method 147-1998.). In this example, the antimicrobial agents incorporated into an absorbent binder composition were Benzalkonium chloride, hydrogen peroxide, and a combination of the Benzalkonium chloride and hydrogen peroxide. According to the test method, the absorbent binder compositions were then brought into contact with test wafers to impregnate the test wafers with the absorbent binder compositions. The absorbent binder composition-impregnated test wafers were then brought into contact with various pathogenic bacteria on an agar plate and the agar plates were then left to incubate according to the test method. Following incubation, the distance between the wafers and the growth of bacteria was measured.

In the case of CN[C@H](CC(C)C)C(=O)N[C@H]1C(=O)N[C@@H](CC(N)=O)C(=O)N[C@H]2C(=O)N[C@H]3C(=O)N[C@H](C(=O)N[C@H](C(=O)O)c4cc(O)cc(O)c4-c4cc3ccc4O)[C@H](O)c3ccc(c(Cl)c3)Oc3cc2cc(c3O[C@@H]2O[C@H](CO)[C@@H](O)[C@H](O)[C@H]2O[C@H]2C[C@](C)(N)[C@H](O)[C@H](C)O2)Oc2ccc(cc2Cl)[C@H]1O [vancomycin wafer, vancomycin], the “E. coli Zone of Inhibition” value is reported as 1.9 cm.
